These results are taken from US20110086834A1, “ALKYNYL ALCOHOLS AS KINASE INHIBITORS” (AMGEN INC., priority 2008, published 2011).

The target of this experiment is T1, NIK (Homo sapiens, UniProt Q99558).
T1 construct: Both assays utilize a truncated form of NIK containing only the catalytic domain; made in house; host or cells: baculovirus expression system (insect cells implied)
Description: homogenous time resolved fluorescence (HTRF) assay for NIK Ki measurement. It counts as biochemical. Conditions: truncated NIK (catalytic domain only), autophosphorylation; 10 nM enzyme; 20, 100, 200 or 500 μM ATP; room temperature, 2 hours; read-out: Ki activity in the homogenous time resolved fluorescence (HTRF) assay for NIK.

The structures appear in SMILES notation. pKi: −log10 of the molar value.

T1 sequence (Q99558 400-655 limits assumed): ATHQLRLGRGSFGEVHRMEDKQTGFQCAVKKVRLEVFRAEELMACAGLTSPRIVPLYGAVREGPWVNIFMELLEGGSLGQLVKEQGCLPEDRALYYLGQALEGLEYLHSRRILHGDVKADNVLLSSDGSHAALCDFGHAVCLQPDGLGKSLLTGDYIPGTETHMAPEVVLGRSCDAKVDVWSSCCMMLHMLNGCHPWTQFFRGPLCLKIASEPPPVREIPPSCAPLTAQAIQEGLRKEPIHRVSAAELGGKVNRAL

Regarding `CC1(CO)CN(c2nc(N)ncc2F)c2cc(C#CC3(O)CCCC3)ccc21` (stereo not drawn) [Example 66, 1-((1-(2-amino-5-fluoro-4-pyrimidinyl)-3-(hydroxymethyl)-3-methyl-2,3-dihydro-1H-indol-6-yl)ethynyl)cyclopentanol], the negative logarithm of the Ki (pKi) – broadly, −log10 of the Ki, conventionally taken in molar units – was > 6.00.
Turning to `CC1(CCC#N)CN(c2nc(N)ncc2F)c2cc(C#CC3(O)CCCC3)ccc21` (stereo not drawn) [Example 67, 3-(1-(2-amino-5-fluoro-4-pyrimidinyl)-6-((1-hydroxycyclopentyl)ethynyl)-3-methyl-2,3-dihydro-1H-indol-3-yl)propanenitrile], the pKi is > 6.00.
To `Nc1ncc(F)c(N2CCc3ccc(C#CC4(O)CCCC4)cc32)n1` [Example 68, 1-((1-(2-amino-5-fluoro-4-pyrimidinyl)-2,3-dihydro-1H-indol-6-yl)ethynyl)cyclopentanol] belongs > 6.00; to `COCC1(C)CN(c2nc(N)nc3[nH]cnc23)c2cc(C#CC3(O)CCCC3)ccc21` (stereo not drawn) [Example 69, 1-((1-(2-amino-9H-purin-6-yl)-3-(methoxymethyl)-3-methyl-2,3-dihydro-1H-indol-6-yl)ethynyl)cyclopentanol], > 6.00.
To `Nc1nc(N2CCc3ccc(C#CC4(O)CCCC4)cc32)c2nc[nH]c2n1` [Example 72, 1-((1-(2-amino-9H-purin-6-yl)-2,3-dihydro-1H-indol-6-yl)ethynyl)cyclopentanol] belongs > 6.00.
To `COCCOCC1(C)CN(c2nc(N)nc3[nH]cnc23)c2cc(C#CC3(O)CCCC3)ccc21` (stereo not drawn) [Example 73, 1-((1-(2-amino-9H-purin-6-yl)-3-((2-methoxyethoxy)methyl)-3-methyl-2,3-dihydro-1H-indol-6-yl)ethynyl)cyclopentanol] belongs > 6.00; to `CC1(CO)CN(c2nc(N)nc3[nH]cnc23)c2cc(C#CC3(O)CCCC3)ccc21` (stereo not drawn) [Example 74, 1-((1-(2-amino-9H-purin-6-yl)-3-(hydroxymethyl)-3-methyl-2,3-dihydro-1H-indol-6-yl)ethynyl)cyclopentanol], > 6.00.
With `CC1(C)CN(c2nc(N)nc3[nH]cnc23)c2cc(C#CC3(O)CCCC3)ccc21` [Example 75, 1-((1-(2-amino-9H-purin-6-yl)-3,3-dimethyl-2,3-dihydro-1H-indol-6-yl)ethynyl)cyclopentanol], the pKi is > 6.00.
With `Cc1ccc(S(=O)(=O)n2nccc2C(C)(O)C#Cc2ccc3c(c2)N(c2ccnc(N)n2)CC3)cc1` (stereo not drawn) [Example 76, 4-(1-(2-Amino-4-pyrimidinyl)-2,3-dihydro-1H-indol-6-yl)-2-(1-((4-methylphenyl)sulfonyl)-1H-pyrazol-5-yl)-3-butyn-2-ol], the pKi was > 6.00.
`CC(O)(C#Cc1ccc2c(c1)N(c1ccnc(N)n1)CC2)c1ccn[nH]1` (stereo not drawn) [Example 77, 4-(1-(2-Amino-4-pyrimidinyl)-2,3-dihydro-1H-indol-6-yl)-2-(1H-pyrazol-5-yl)-3-butyn-2-ol]: the pKi was > 6.00.
To `CC(O)(C#Cc1ccc2c(c1)N(c1nc(N)ncc1Cl)CC2)c1ccn[nH]1` (stereo not drawn) [Example 78, 4-(1-(2-Amino-5-chloro-4-pyrimidinyl)-2,3-dihydro-1H-indol-6-yl)-2-(1H-pyrazol-5-yl)-3-butyn-2-ol] belongs > 6.00.
To `Cc1c[nH]c(C(C)(O)C#Cc2ccc3c(c2)N(c2nc(N)ncc2Cl)CC3(C)C)n1` (stereo not drawn) [Example 79, 4-(1-(2-Amino-5-chloro-4-pyrimidinyl)-3,3-dimethyl-2,3-dihydro-1H-indol-6-yl)-2-(4-methyl-1H-imidazol-2-yl)-3-butyn-2-ol] belongs > 6.00; to `CC(O)(C#Cc1ccc2c(c1)N(c1nc(N)ncc1Cl)CC2(C)C)c1ccn[nH]1` (stereo not drawn) [Example 80, 4-(1-(2-amino-5-chloropyrimidin-4-yl)-3,3-dimethylindolin-6-yl)-2-(1H-pyrazol-5-yl)but-3-yn-2-ol and 4-(1-(2-amino-5-chloropyrimidin-4-yl)-3,3-dimethylindolin-6-yl)-2-(1H-pyrazol-3-yl)but-3-yn-2-ol], > 6.00; to `C[C@](O)(C#Cc1ccc2c(c1)N(c1nc(N)ncc1Cl)CC21COC1)c1nccs1` [Example 81], 4.52 to 6.00.
As to `CC(O)(C#Cc1ccc2[nH]nc(-c3ccns3)c2c1)c1nccs1` (stereo not drawn) [Example 83, 4-(3-(isothiazol-5-yl)-1H-indazol-5-yl)-2-(thiazol-2-yl)but-3-yn-2-ol], the pKi is > 6.00.
To `COCCNC(=O)c1[nH]c2ccc(C#CC(C)(O)c3nccs3)cc2c1-c1ccncn1` (stereo not drawn) [Example 89, 5-(3-hydroxy-3-(thiazol-2-yl)but-1-ynyl)-N-(2-methoxyethyl)-3-(pyrimidin-4-yl)-1H-indole-2-carboxamide] belongs > 6.00; to `COCCNC(=O)c1c(-c2ccncn2)c2cc(C#CC(C)(O)c3nccs3)ccc2n1C` (stereo not drawn) [Example 90, 5-(3-hydroxy-3-(thiazol-2-yl)but-1-ynyl)-N-(2-methoxyethyl)-1-methyl-3-(pyrimidin-4-yl)-1H-indole-2-carboxamide], > 6.00; to `C[C@@](O)(C#Cc1ccc2[nH]c(C(=O)N3CCOCC3)c(-c3ccncn3)c2c1)c1nccs1` [Example 91, (5-((R)-3-hydroxy-3-(thiazol-2-yl)but-1-ynyl)-3-(pyrimidin-4-yl)-1H-indol-2-yl)(morpholino)methanone], > 6.00.
To `CC(C)(C)NC(=O)c1ccc(-c2[nH]c3ccc(C#CC4(O)CCCC4)cc3c2-c2ccnc(N)n2)cc1` [Example 93, 4-(3-(2-aminopyrimidin-4-yl)-5-(2-(1-hydroxycyclopentyl)ethynyl)-1H-indol-2-yl)-N-tert-butylbenzamide] belongs > 6.00; to `N#Cc1ccc(-c2[nH]c3ccc(C#CC4(O)CCCC4)cc3c2-c2ccnc(N)n2)cc1` [Example 94, 4-(3-(2-aminopyrimidin-4-yl)-5-(2-(1-hydroxycyclopentyl)ethynyl)-1H-indol-2-yl)benzonitrile], > 6.00; to `Nc1ncc(F)c(-c2c[nH]c3ccc(C#CC4(O)CCCC4)cc23)n1` [Example 95, 1-(2-(3-(2-amino-5-fluoropyrimidin-4-yl)-1H-indol-5-yl)ethynyl)cyclopentanol], > 6.00.
To `COCCNC(=O)c1[nH]c2ccc(C#CC3(O)CCCC3)cc2c1-c1ccnc(N)n1` [Example 96, 3-(2-aminopyrimidin-4-yl)-5-(2-(1-hydroxycyclopentyl)ethynyl)-N-(2-methoxyethyl)-1H-indole-2-carboxamide] belongs > 6.00; to `OC1(C#Cc2ccc3[nH]nc(-c4ccns4)c3c2)CCCC1` [Example 97, 1-(2-(3-(isothiazol-5-yl)-1H-indazol-5-yl)ethynyl)cyclopentanol], > 6.00; to `COc1cc(C#CC2(O)CCCC2)cc2c1ccn2-c1ccnc(N)n1` [Example 98, 1-(2-(1-(2-aminopyrimidin-4-yl)-4-methoxy-1H-indol-6-yl)ethynyl)cyclopentanol], > 6.00.
`Nc1nccc(-n2ccc3c(O)cc(C#CC4(O)CCCC4)cc32)n1` [Example 99, 1-(2-aminopyrimidin-4-yl)-6-(2-(1-hydroxycyclopentyl)ethynyl)-1H-indol-4-ol]: the pKi was > 6.00.
The value for `COCCOc1cc(C#CC2(O)CCCC2)cc2c1ccn2-c1ccnc(N)n1` [Example 100, 1-(2-(1-(2-aminopyrimidin-4-yl)-4-(2-methoxyethoxy)-1H-indol-6-yl)ethynyl)cyclopentanol] was > 6.00; that for `CC(=O)Nc1cc(C#CC2(O)CCCC2)cc2c1ccn2-c1ccnc(N)n1` [Example 101, N-(1-(2-aminopyrimidin-4-yl)-6-(2-(1-hydroxycyclopentyl)ethynyl)-1H-indol-4-yl)acetamide] was > 6.00.
The value for `COc1cc(C#CC2(O)CCCC2)cc2c1ccn2-c1nc(N)ncc1F` [Example 102, 1-((1-(2-amino-5-fluoropyrimidin-4-yl)-4-methoxy-1H-indol-6-yl)ethynyl)cyclopentanol] was > 6.00; that for `COc1cc(C#CC2(O)CCCC2)cc2c1c(CO)cn2-c1nc(N)ncc1F` [Example 103, 1-(2-(1-(2-amino-5-fluoropyrimidin-4-yl)-3-(hydroxymethyl)-4-methoxy-1H-indol-6-yl)ethynyl)cyclopentanol] was > 6.00.
Regarding `Cc1cc(C(C)(O)C#Cc2ccc3[nH]c(C)c(-c4ccncc4)c3c2)no1` (stereo not drawn) [Example 104, 4-(2-methyl-3-(pyridin-4-yl)-1H-indol-5-yl)-2-(5-methylisoxazol-3-yl)but-3-yn-2-ol], the pKi was > 6.00.
The value for `COCCN(C)C1CCn2c1c(-c1ccncn1)c1cc(C#CC(C)(O)c3nccs3)ccc12` (stereo not drawn) [Example 105, 4-(1-((2-methoxyethyl)(methyl)amino)-9-(pyrimidin-4-yl)-2,3-dihydro-1H-pyrrolo[1,2-a]indol-7-yl)-2-(thiazol-2-yl)but-3-yn-2-ol] was > 6.00; that for `CC(O)(C#Cc1ccc2[nH]cc(-c3cnco3)c2c1)c1nccs1` (stereo not drawn) [Example 106, 4-(3-(oxazol-5-yl)-1H-indol-5-yl)-2-(thiazol-2-yl)but-3-yn-2-ol] was > 6.00.
`Nc1ncc(Cl)c(-c2c[nH]c3ccc(C#CC4(O)CCCC4)cc23)n1` [Example 107, 1-(2-(3-(2-amino-5-chloropyrimidin-4-yl)-1H-indol-5-yl)ethynyl)cyclopentanol]: the pKi was > 6.00.
The value for `N#Cc1cnc(N)nc1-c1c[nH]c2ccc(C#CC3(O)CCCC3)cc12` [Example 108, 2-amino-4-(5-(2-(1-hydroxycyclopentyl)ethynyl)-1H-indol-3-yl)pyrimidine-5-carbonitrile] was > 6.00.
The value for `Nc1ncc(Cl)c(-c2c[nH]c3ccc(C#CC4(O)CCCCC4)cc23)n1` [Example 109, 1-(2-(3-(2-amino-5-chloropyrimidin-4-yl)-1H-indol-5-yl)ethynyl)cyclohexanol] was > 6.00; that for `CNc1nccc(-c2c[nH]c3ccc(C#CC4(O)CCCC4)cc23)n1` [Example 111, 1-(2-(3-(2-(methylamino)pyrimidin-4-yl)-1H-indol-5-yl)ethynyl)cyclopentanol] was > 6.00.
